# Test: Food intake test in food-deprived rats (anorectic activity)
# Assay type: in vivo, Male Sprague-Dawley derived rats
# Conditions: rat, 32.0 mg/kg i.g., 24 h food-deprived, food given 30 min after dosing; for Food Intake, % of control, 1 Hr.: 1 hour intake; for Food Intake, % of control, 2 Hr.: 2 hour intake; for Food Intake, % of control, 6 Hr.: 6 hour intake
# Procedure: Male Sprague-Dawley derived rats, Charles River Breeders (Portage, MI), weighing between 200-400 grams at the time of testing, were employed in the food intake studies and water intake studies. The rats were housed individually and kept on a 12 hour light-dark-light cycle. The room temperature ranged between 23°-25° C. The rats employed in food intake testing were food deprived on the day preceding testing and were divided into experimental groups that were matched on the basis of average daily food intake and body weight. At approximately 24 hour post-deprivation, the rats were administered a test sample containing as the active ingredient a compound of the present invention. All test samples employed herein were prepared and homogenized in a vehicle of normal saline (to which a few drops of PG/Tween 80 was added). The test samples were administered at an injection volume of 2 ml/kg, unless otherwise stated. Thirty minutes following administration of the test samples, pre-weighed food jars containing ground meal were placed in the rats' cages. (Prior to testing the rats were given ground meal for a minimum of 3 days to familiarize the rats with this food.) After 1, 2 and 6 hours of food access, the jars were removed, weighed and returned to the rats' cages providing a 1, 2 and 6 hours intake measurement. […] The results obtained are represented in Table I as a percent of control values. A student t test was used for making statistical comparisons, and the p-values are based upon two-tailed comparisons. The compound employed as the active ingredient on the test sample is indicated by the example number which describes its preparation.
SMILES,"Food Intake, % of control, 1 Hr.","Food Intake, % of control, 2 Hr.","Food Intake, % of control, 6 Hr."
"O=c1c(CO)cnc2c3ccccc3ccn12 [Example 1, 3-(hydroxymethyl)-4H-pyrimido [2,1-a]isoquinolin-4-one]",61.8 % of control,77.4 % of control,90.4 % of control
"CC(=O)OCc1cnc2c3ccccc3ccn2c1=O [Example 2, 3-(hydroxymethyl)-4H-pyrimido[2,1-a]isoquinolin-4-one acetate]",51.4 % of control,67.1 % of control,89.8 % of control
"Cl.Cl.NCc1cnc2c3ccccc3ccn2c1=O [Example 3, 3-(aminomethyl)-4H-pyrimido[2,1-a]isoquinolin-4-one, dihydrochloride]",51.3 % of control,71.4 % of control,92.3 % of control
"CCN(CC)CCOCc1cnc2c3ccccc3ccn2c1=O.Cl.Cl [Example 4, 3-[[2-(diethylamino)ethoxy]methyl]-4H-pyrimido[2,1-a]isoquinolin-4-one dihydrochloride]",70.8 % of control,80.8 % of control,90.9 % of control
CN(C)CCNC(=O)c1cnc2c3ccccc3ccn2c1=O [Example 5],82.4 % of control,87.5 % of control,88.3 % of control

# — patent publication US4661592A, “4H-pyrimido[2,1-a]isoquinolin-4-one derivatives” (G. D. Searle & Co., priority 1984, dated 1987)
